Measured values taken from publication PMC7522794, “Synthesis and evaluation of novel 2,4-disubstituted arylthiazoles against T. brucei” (RSC Medicinal Chemistry, 2019).

Assays:
[1] = system: Bloodstream form T. brucei (strain 427); test: Trypanocidal activity against bloodstream form T. brucei (Alamar Blue growth inhibition); assay type: cell-based, Trypanosoma brucei; settings: Trypanosoma brucei, 48 hours + overnight Alamar Blue; for IC50: concentration that inhibits growth by 50%; for IC90: concentration that inhibits growth by 90%
Procedure: Bloodstream form T. brucei (strain 427) were cultured at 37 °C in modified Iscove's medium. Trypanocidal activity was assessed by growing parasites in microtiter plates in the presence of various drug concentrations. […] The plates were incubated for 48 hours at 37 °C and 20 μL Alamar Blue was then added to each well. After an additional overnight incubation, the fluorescence was determined. Inhibition of growth was calculated by comparison with control values and IC50 and IC90 values were determined in triplicate using linear regression analysis.

[2] = Cytotoxic activity against rat skeletal myoblast L6 cells (Alamar Blue); assay type: cell-based; settings: rat, L6 cells (rat skeletal muscle line); cytotoxicity, 6 days incubation + 8 hours Alamar Blue
Procedure: (§1) Cytotoxicity against mammalian cells was assessed using microtitre plates. Briefly, L6 cells (a rat skeletal muscle line) were seeded at 1 × 10^4 mL^–1 in 200 μL of growth medium containing 7 different compound concentrations in a range previously established to encompass both the IC50 and IC90 values. The plates were incubated for 6 days at 37 °C and 20 μL Alamar Blue (Biosource UK Ltd) was then added to each well. After an additional 8 hours incubation, the fluorescence was determined using a FLUOstar Omega fluorescent plate reader (BMG Labtech). Inhibition of growth was calculated by comparison with control values and IC50 and IC90 values were determined in triplicate using linear regression analysis.

L6 cells = test: as above; assay type: cell-based; settings: ratio of IC50 values obtained with L6 cells and T. brucei
Procedure: as §1

| melting point | Compound | IC50 [1] [µM] | IC90 [1] [µM] | IC50 [2] [µM] | S.I. (selectivity index) (L6 cells) |
| --- | --- | --- | --- | --- | --- |
| – | O=C(NCCc1csc(-c2ccc(F)c(C34CC5CC(CC(C5)C3)C4)c2)n1)N1CCCCC1 [Compound 1j, N-{2-[2-(3-(1-Tricyclo[3.3.1.1^3,7]decyl)-4-fluorophenyl)thiazol-4-yl}ethyl)piperidine-1-yl-carboxamide] | 10.7 ± 0.3 | 12.6 ± 0.2 | < 10.3 | <1 |
| – | NCCc1csc(-c2ccc(C34CC5CC(CC(C5)C3)C4)cc2)n1 [Compound 2a, 2-{2-[4-(1-Tricyclo[3.3.1.1^3,7]decyl)phenyl]thiazol-4-yl}ethan-1-amine] | 0.8 ± 0.03 | 1.17 ± 0.01 | 4.08 ± 0.15 | 5.1 |
| – | CNCCc1csc(-c2ccc(C34CC5CC(CC(C5)C3)C4)cc2)n1 [Compound 2b, 2-{2-[4-(1-Tricyclo[3.3.1.1^3,7]decyl)phenyl]thiazol-4-yl}-N-methylethan-1-amine] | 0.59 ± 0.02 | 0.79 ± 0.01 | 0.96 ± 0.26 | 1.6 |
| 345 °C (dec.) | Br.Nc1nc(-c2ccc(C34CC5CC(CC(C5)C3)C4)cc2)cs1 [Compound 3a, 4-[4-(1-Tricyclo[3.3.1.1^3,7]decyl)phenyl]thiazol-2-amine hydrobromide] | 22.5 ± 0.6 | 30.5 ± 4.5 | 13.8 ± 1.6 | <1 |
| 261 to 263 °C | Br.NCCc1nc(-c2ccc(C34CC5CC(CC(C5)C3)C4)cc2)cs1 [Compound 3c, 2-{4-[4-(1-Tricyclo[3.3.1.1^3,7]decyl)phenyl]thiazol-2-yl}ethanamine hydrobromide] | 2.74 ± 0.29 | 4.4 ± 0.07 | 4.16 ± 0.24 | 1.5 |

| Compound | melting point | IC50 [1] [µM] | IC90 [1] [µM] | IC50 [2] [µM] | S.I. (selectivity index) (L6 cells) |
| --- | --- | --- | --- | --- | --- |
| Br.CN(C)CCc1nc(-c2ccc(C34CC5CC(CC(C5)C3)C4)cc2)cs1 [Compound 3d, 2-{4-[4-(1-Tricyclo[3.3.1.1^3,7]decyl)phenyl]thiazol-2-yl}-N,N-dimethylethan-1-amine dihydrochloride] | 200 to 202 °C | – | – | 3.19 ± 0.25 | 2.3 |
